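Results reflect a 48-hour exposure of cells in 96-well plates to compound at five concentrations. GI50: concentration for 50% inhibition of growth. TGI: total growth inhibition.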
Experiments:
Experiment in all cases: NCI-60 cell line screen, 48 h
NCI-H226 lung = test system: NCI-H226 lung
HOP-92 NSCLC = test system: HOP-92 NSCLC
TK-10 renal = test system: TK-10 renal
HT29 colon = test system: HT29 colon
SK-MEL-5 melanoma = test system: SK-MEL-5 melanoma
SK-OV-3 ovarian = test system: SK-OV-3 ovarian
COLO 205 colon = test system: COLO 205 colon
OVCAR-8 ovarian = test system: OVCAR-8 ovarian
T-47D breast = test system: T-47D breast
MCF7 breast = test system: MCF7 breast
OVCAR-5 ovarian = test system: OVCAR-5 ovarian
UACC-257 melanoma = test system: UACC-257 melanoma
RPMI-8226 leukemia = test system: RPMI-8226 leukemia
A498 renal = test system: A498 renal
MDA-MB-231 breast = test system: MDA-MB-231 breast
HCT-116 colon = test system: HCT-116 colon
HCC-2998 colon = test system: HCC-2998 colon
K-562 leukemia = test system: K-562 leukemia
SF-295 CNS = test system: SF-295 CNS
M14 melanoma = test system: M14 melanoma
PC-3 prostate = test system: PC-3 prostate
UACC-62 melanoma = test system: UACC-62 melanoma
CAKI-1 renal = test system: CAKI-1 renal
HS 578T breast = test system: HS 578T breast
U251 CNS = test system: U251 CNS
HCT-15 colon = test system: HCT-15 colon
EKVX NSCLC = test system: EKVX NSCLC
RXF 393 renal = test system: RXF 393 renal
CCRF-CEM leukemia = test system: CCRF-CEM leukemia
SF-539 CNS = test system: SF-539 CNS
SF-268 CNS = test system: SF-268 CNS
SK-MEL-2 melanoma = test system: SK-MEL-2 melanoma
MOLT-4 leukemia = test system: MOLT-4 leukemia
786-0 renal = test system: 786-0 renal
LOX IMVI melanoma = test system: LOX IMVI melanoma
SNB-19 CNS = test system: SNB-19 CNS
BT-549 breast = test system: BT-549 breast
A549 NSCLC = test system: A549 NSCLC
HL-60(TB) leukemia = test system: HL-60(TB) leukemia
KM12 colon = test system: KM12 colon
NCI/ADR-RES ovarian = test system: NCI/ADR-RES ovarian
OVCAR-4 ovarian = test system: OVCAR-4 ovarian
MALME-3M melanoma = test system: MALME-3M melanoma
NCI-H522 lung = test system: NCI-H522 lung
SK-MEL-28 melanoma = test system: SK-MEL-28 melanoma
NCI-H460 lung = test system: NCI-H460 lung
DU-145 prostate = test system: DU-145 prostate
MDA-MB-435 = test system: MDA-MB-435
HOP-62 NSCLC = test system: HOP-62 NSCLC
UO-31 renal = test system: UO-31 renal
NCI-H23 lung = test system: NCI-H23 lung
SNB-75 CNS = test system: SNB-75 CNS
SR leukemia = test system: SR leukemia
IGROV1 ovarian = test system: IGROV1 ovarian
ACHN renal = test system: ACHN renal
SN12C renal = test system: SN12C renal
SW-620 colon = test system: SW-620 colon

Cc1ccc(-c2nnc(SCc3ccc(O)c4ncccc34)n2-c2ccccc2)cc1
GI50 (NCI-H226 lung): 973 nM
TGI (NCI-H226 lung): > 100000 nM
GI50 (HOP-92 NSCLC): 195 nM
TGI (HOP-92 NSCLC): 1250 nM
GI50 (TK-10 renal): 249 nM
TGI (TK-10 renal): 4400 nM
GI50 (HT29 colon): 3780 nM
TGI (HT29 colon): > 100000 nM
GI50 (SK-MEL-5 melanoma): 337 nM
GI50 (SK-OV-3 ovarian): 370 nM
TGI (SK-OV-3 ovarian): 4050 nM
GI50 (COLO 205 colon): 1440 nM
TGI (COLO 205 colon): 6090 nM
GI50 (OVCAR-8 ovarian): 175 nM
TGI (OVCAR-8 ovarian): 2140 nM
GI50 (T-47D breast): 289 nM
TGI (T-47D breast): 3530 nM
GI50 (MCF7 breast): 81.9 nM
TGI (MCF7 breast): > 100000 nM
GI50 (OVCAR-5 ovarian): 1130 nM
TGI (OVCAR-5 ovarian): > 100000 nM
GI50 (UACC-257 melanoma): 388 nM
TGI (UACC-257 melanoma): 4220 nM
GI50 (RPMI-8226 leukemia): 232 nM
TGI (RPMI-8226 leukemia): > 100000 nM
GI50 (A498 renal): 1500 nM
TGI (A498 renal): 13200 nM
GI50 (MDA-MB-231 breast): 439 nM
TGI (MDA-MB-231 breast): 24900 nM
GI50 (HCT-116 colon): 46.7 nM
TGI (HCT-116 colon): > 35300 nM
GI50 (HCC-2998 colon): 326 nM
TGI (HCC-2998 colon): > 100000 nM
GI50 (K-562 leukemia): 217 nM
TGI (K-562 leukemia): > 100000 nM
GI50 (SF-295 CNS): 265 nM
TGI (SF-295 CNS): 4270 nM
GI50 (M14 melanoma): 166 nM
TGI (M14 melanoma): 3240 nM
GI50 (PC-3 prostate): 164 nM
TGI (PC-3 prostate): > 100000 nM
GI50 (UACC-62 melanoma): 347 nM
TGI (UACC-62 melanoma): 2210 nM
GI50 (CAKI-1 renal): 312 nM
TGI (CAKI-1 renal): 7790 nM
GI50 (HS 578T breast): 236 nM
TGI (HS 578T breast): 2000 nM
GI50 (U251 CNS): 98.9 nM
TGI (U251 CNS): 1740 nM
GI50 (HCT-15 colon): 66.6 nM
TGI (HCT-15 colon): > 100000 nM
GI50 (EKVX NSCLC): 395 nM
TGI (EKVX NSCLC): > 60800 nM
GI50 (RXF 393 renal): 399 nM
TGI (RXF 393 renal): 24000 nM
GI50 (CCRF-CEM leukemia): 94.9 nM
TGI (CCRF-CEM leukemia): > 100000 nM
GI50 (SF-539 CNS): 272 nM
TGI (SF-539 CNS): 3160 nM
GI50 (SF-268 CNS): 90.6 nM
TGI (SF-268 CNS): 10900 nM
GI50 (SK-MEL-2 melanoma): 276 nM
TGI (SK-MEL-2 melanoma): 875 nM
GI50 (MOLT-4 leukemia): 196 nM
TGI (MOLT-4 leukemia): > 100000 nM
GI50 (786-0 renal): 509 nM
TGI (786-0 renal): 26700 nM
GI50 (LOX IMVI melanoma): 206 nM
TGI (LOX IMVI melanoma): 3970 nM
GI50 (SNB-19 CNS): 231 nM
TGI (SNB-19 CNS): 31100 nM
GI50 (BT-549 breast): 201 nM
TGI (BT-549 breast): > 21700 nM
GI50 (A549 NSCLC): 366 nM
TGI (A549 NSCLC): > 100000 nM
GI50 (HL-60(TB) leukemia): 161 nM
TGI (HL-60(TB) leukemia): > 39800 nM
GI50 (KM12 colon): 294 nM
TGI (KM12 colon): > 100000 nM
GI50 (NCI/ADR-RES ovarian): 147 nM
TGI (NCI/ADR-RES ovarian): 2270 nM
GI50 (OVCAR-4 ovarian): 431 nM
TGI (OVCAR-4 ovarian): > 100000 nM
GI50 (MALME-3M melanoma): 353 nM
TGI (MALME-3M melanoma): 6670 nM
GI50 (NCI-H522 lung): 305 nM
TGI (NCI-H522 lung): 4240 nM
GI50 (SK-MEL-28 melanoma): 376 nM
TGI (SK-MEL-28 melanoma): > 100000 nM
GI50 (NCI-H460 lung): 38.2 nM
TGI (NCI-H460 lung): 1580 nM
GI50 (DU-145 prostate): 298 nM
TGI (DU-145 prostate): > 100000 nM
GI50 (MDA-MB-435): 110 nM
TGI (MDA-MB-435): > 100000 nM
GI50 (HOP-62 NSCLC): 345 nM
TGI (HOP-62 NSCLC): 2630 nM
GI50 (UO-31 renal): 155 nM
TGI (UO-31 renal): 1260 nM
GI50 (NCI-H23 lung): 254 nM
TGI (NCI-H23 lung): > 39800 nM
GI50 (SNB-75 CNS): 248 nM
TGI (SNB-75 CNS): 2680 nM
GI50 (SR leukemia): 78.2 nM
TGI (SR leukemia): > 100000 nM
GI50 (IGROV1 ovarian): 284 nM
TGI (IGROV1 ovarian): > 100000 nM
GI50 (ACHN renal): 144 nM
TGI (ACHN renal): 8020 nM
GI50 (SN12C renal): 329 nM
TGI (SN12C renal): > 100000 nM
GI50 (SW-620 colon): 192 nM
TGI (SW-620 colon): > 100000 nM
